≈ marks a conversion by molar mass, not a printed value. Where a name gives a salt, the structure may show the parent alone. Read-outs that look alike come from different tables or passages of the source. Values belong to the molecule of their own block, whether it stands above or below them.
Columns and labels:
Format in all cases: physicochemical
[1] = Solubility in media with different pH values; settings: shaken 24 h; for Solubility pH 3 / Solubility pH 4 / Solubility pH 5 / Solubility pH 6: acetate buffer; for Solubility pH 3 / Solubility pH 4 / Solubility pH 5 / Solubility pH 6 / Solubility pH 7 / Solubility pH 7.4 / Solubility pH 8 / Solubility pH 9 / Solubility Water: 37° C.; for Solubility pH 7 / Solubility pH 7.4 / Solubility pH 8 / Solubility pH 9 / solubility at 24 h: phosphate buffer; for solubility at 24 h: 37 °C, thermodynamic from solid
Method: The mixtures were shaken at 37° C. for 24 h and filtered through a 0.45 μm aqueous-phase filter membranes. The filtrates were collected for solubility determination by high performance liquid chromatography. pH 3, pH 4, pH5 and pH 6 represent acetate buffer solutions, and pH 7, pH 7.4, pH 8 and pH 9 represent phosphate buffer solutions.

[2] = Hydrochloride dissociation study (XRPD of residues); settings: aqueous media of pH 6, pH 7, pH 7.4, pH 8, pH 9; shaken at 37° C. for 4 h
Method: The mixtures were shaken at 37° C. for 4 h and centrifuged.

[3] = Crystal form stability of solid salt forms (XRPD); settings: 60° C., Day 10, listed as crystal form A of cariprazine mono-1-hydroxy-2-naphthoate dihydrate
Method: (4) The XRPD measurements were conducted on a Bruker model D8 Advance X-ray powder diffractometer using a round zero background single crystal silicon sample stage. CuKα rays were used as a light source in the test, and the scanning parameters are as follows: voltage: 40 kv; current: 40 mA; scanning range: 3°-45°; scanning step size: 0.02°; scanning mode: continuous scanning.

[4] = listed as Crystal form A of cariprazine bis-1-hydroxy-2-naphthoate hydrate (Example 5), hydrate
[5] = listed as Amorphous cariprazine embonate (Example 7)
[6] = listed as Crystal form A of cariprazine mono-1-hydroxy-2-naphthoate dihydrate (Example 1), dihydrate

SMILES: CN(C)C(=O)NC1CCC(CCN2CCN(c3cccc(Cl)c3Cl)CC2)CC1 (centres unmarked) [cariprazine bis-1-hydroxy-2-naphthoate hydrate]
- Solubility pH 3 [1, 4]: 36.75 μg/mL
- Solubility pH 4 [1, 4]: 65.87 μg/mL
- Solubility pH 5 [1, 4]: 20.69 μg/mL
- Solubility pH 6 [1, 4]: 15.24 μg/mL
- Solubility pH 7 [1, 4]: 6.13 μg/mL
- Solubility pH 7.4 [1, 4]: 3.00 μg/mL
- Solubility pH 8 [1, 4]: 1.14 μg/mL
- Solubility pH 9 [1, 4]: 0.94 μg/mL
- Solubility Water [1, 4]: 55.20 µg/mL

SMILES: CN(C)C(=O)NC1CCC(CCN2CCN(c3cccc(Cl)c3Cl)CC2)CC1 (centres unmarked) [Amorphous cariprazine embonate, cariprazine embonate]
- Solubility pH 3 [1, 5]: 151.2 μg/mL
- Solubility pH 4 [1, 5]: 19.1 μg/mL
- Solubility pH 5 [1, 5]: 17.7 μg/mL
- Solubility pH 6 [1, 5]: 19.0 μg/mL
- Solubility pH 7 [1, 5]: 18.8 μg/mL
- Solubility pH 7.4 [1, 5]: 9.9 μg/mL
- Solubility pH 8 [1, 5]: 4.6 μg/mL
- Solubility pH 9 [1, 5]: 4.2 μg/mL
- Solubility Water [1, 5]: 10.4 µg/mL (≈ 24.3 µM)

SMILES: CN(C)C(=O)N[C@H]1CC[C@H](CCN2CCN(c3cccc(Cl)c3Cl)CC2)CC1 [cariprazine hydrochloride, reference compound]
- Solubility pH 3 [1]: 12302.45 μg/mL
- Solubility pH 5 [1]: 1081.35 μg/mL
- solubility at 24 h ([1]; pH 7, aqueous buffer, read-out: Solubility pH 7): 9.41 µg/mL
- solubility at 24 h ([1]; pH 7.4, aqueous buffer, read-out: Solubility pH 7.4): 2.82 µg/mL
- solubility at 24 h ([1]; pH 8, aqueous buffer, read-out: Solubility pH 8): 0.91 µg/mL
- solubility at 24 h ([1]; pH 9, aqueous buffer, read-out: Solubility pH 9): 0.35 µg/mL
- Solubility Water [1]: 10935.14 µg/mL
- Dissociation in aqueous media (XRPD of residue) [2]: dissociated into cariprazine free base

Now from value to molecule, other results behind:

- Solubility pH 3 [1]: 102.65 μg/mL
- Solubility pH 4 [1]: 82.64 μg/mL
- Solubility pH 5 [1]: 81.47 μg/mL
- Solubility pH 6 [1]: 36.38 μg/mL
- Solubility pH 7 [1]: 4.79 μg/mL
- Solubility pH 7.4 [1]: 1.53 μg/mL
- Solubility pH 8 [1]: 0.51 μg/mL
- Solubility pH 9 [1]: 0.31 μg/mL
- Solubility Water [1]: 65.28 µg/mL (≈ 153 µM)
SMILES: CN(C)C(=O)NC1CCC(CCN2CCN(c3cccc(Cl)c3Cl)CC2)CC1 (centres unmarked) [Crystal form C of cariprazine mono-1-hydroxy-2-naphthoate (E]

- Solubility pH 3 [1, 6]: 166.74 μg/mL
- Solubility pH 4 [1, 6]: 72.47 μg/mL
- Solubility pH 5 [1, 6]: 72.69 μg/mL
- Solubility pH 6 [1, 6]: 41.95 μg/mL
- Solubility pH 7 [1, 6]: 5.02 μg/mL
- Solubility pH 7.4 [1, 6]: 1.51 μg/mL
- Solubility pH 8 [1, 6]: 0.62 μg/mL
- Solubility pH 9 [1, 6]: 0.45 μg/mL
- Solubility Water [1, 6]: 60.01 µg/mL
SMILES: CN(C)C(=O)NC1CCC(CCN2CCN(c3cccc(Cl)c3Cl)CC2)CC1 (centres unmarked) [cariprazine mono-1-hydroxy-2-naphthoate dihydrate]
- Crystal form results, High temperature [3]: change into the crystal form C of cariprazine mono-1-hydroxy-2-naphthoate

- Solubility pH 8 [1]: 0.4 μg/mL
- Solubility Water [1]: 179.94 µg/mL (≈ 421 µM)
SMILES: CN(C)C(=O)NC1CCC(CCN2CCN(c3cccc(Cl)c3Cl)CC2)CC1 (centres unmarked) [Cariprazine (commercially available), Cariprazine, reference compound]

Reference: patent US20250177381A1 (SHANGHAI YONSUN BIOTECHNOLOGY CO., LTD., priority 2022, published 2025)
